The source of these data is the supplement of paper PMC10307832.

Holding throughout (test): relative viability (nuclei count vs DMSO), 5 days (fraction); higher = more cells survive
Compound in one experiment: COc1ccc(-c2ccc3c(N4CCOC[C@@H]4C)nc(N4CCOC[C@@H]4C)nc3n2)cc1CO [AZD8055]
The procedure, abridged:
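For viability, nuclei in each treated well were divided by nuclei in vehicle wells and the median across plates was taken. Lung cancer cell lines in 1536-well plates were pinned with five library-drug doses (not always all listed) spaced by √10, cultured 5 days without medium change, and imaged at 4× after Hoechst staining, with plates passing only at control CV below 25% and at least one doubling.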

Compound in the experiment “AZD8055 + Navitoclax”: COc1ccc(-c2ccc3c(N4CCOC[C@@H]4C)nc(N4CCOC[C@@H]4C)nc3n2)cc1CO [AZD8055] + CC1(C)CCC(c2ccc(Cl)cc2)=C(CN2CCN(c3ccc(C(=O)NS(=O)(=O)c4ccc(N[C@H](CCN5CCOCC5)CSc5ccccc5)c(S(=O)(=O)C(F)(F)F)c4)cc3)CC2)C1 [Navitoclax] (partner 0.5 µM)
In a few lines:
(§1)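 Lung cancer cell lines were seeded in 1536-well plates and dosed by pin tool the next day, with either a single drug or a fixed anchor-drug dose combined with five library-drug doses (not always all listed) spaced in √10 steps. Five days later, one step fixed the cells and stained their nuclei (final 0.05% Triton X-100, 1% formaldehyde, 1 ug/ml Hoechst), and nuclei were counted on 4× images. Relative viability is the nuclei count in treated wells divided by the count in vehicle wells, and each value is the median of duplicate plates.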

Compound in the experiment “AZD8055 + Tozasertib”: COc1ccc(-c2ccc3c(N4CCOC[C@@H]4C)nc(N4CCOC[C@@H]4C)nc3n2)cc1CO [AZD8055] + Cc1cc(Nc2cc(N3CCN(C)CC3)nc(Sc3ccc(NC(=O)C4CC4)cc3)n2)n[nH]1 [Tozasertib] (partner 0.1 µM)
The procedure, abridged: as §1

Compound in the experiment “AZD8055 + Phenformin”: COc1ccc(-c2ccc3c(N4CCOC[C@@H]4C)nc(N4CCOC[C@@H]4C)nc3n2)cc1CO [AZD8055] + N=C(N)NC(=N)NCCc1ccccc1 [Phenformin] (partner 250 µM)
The procedure, abridged: as §1

In the case of COR-L23, the relative viability was found to be 1.35 with AZD8055 (0.01 µM); 0.921 with AZD8055 (0.03162 µM); 0.862 in the experiment with AZD8055 (0.1 µM); 0.28 in the experiment with AZD8055 (0.3162 µM); 0.207 with AZD8055 (1 µM); 1.01 with AZD8055 + Navitoclax (first compound 0.01 µM). Besides, the relative viability in the experiment with AZD8055 + Navitoclax (first compound 0.03162 µM) turned out to be 0.732; with AZD8055 + Navitoclax (first compound 0.1 µM) it was 0.468; in the experiment with AZD8055 + Navitoclax (first compound 0.3162 µM) it was 0.229; in the experiment with AZD8055 + Navitoclax (first compound 1 µM) it was 0.172; with AZD8055 + Tozasertib (first compound 0.01 µM), 0.278; with AZD8055 + Tozasertib (first compound 0.03162 µM), 0.295. Moreover, the relative viability with AZD8055 + Tozasertib (first compound 0.1 µM) amounted to 0.228; in the experiment with AZD8055 + Tozasertib (first compound 0.3162 µM), 0.15; in the experiment with AZD8055 + Tozasertib (first compound 1 µM) it was 0.154; with AZD8055 + Phenformin (first compound 0.01 µM) it was 0.485; in the experiment with AZD8055 + Phenformin (first compound 0.03162 µM), 0.373; with AZD8055 + Phenformin (first compound 0.1 µM) it was 0.341. Moreover, the relative viability was determined as 0.213 with AZD8055 + Phenformin (first compound 0.3162 µM) and 0.157 in the experiment with AZD8055 + Phenformin (first compound 1 µM).

On to COR-L 105, for which the relative viability is 1.04 with AZD8055 (0.01 µM); 0.947 in the experiment with AZD8055 (0.03162 µM); 0.64 with AZD8055 (0.1 µM); 0.378 with AZD8055 (0.3162 µM); 0.435 with AZD8055 (1 µM); 0.914 with AZD8055 + Navitoclax (first compound 0.01 µM). Also, the relative viability with AZD8055 + Navitoclax (first compound 0.03162 µM) was determined as 0.961; with AZD8055 + Navitoclax (first compound 0.1 µM), 0.596; with AZD8055 + Navitoclax (first compound 0.3162 µM), 0.358; with AZD8055 + Navitoclax (first compound 1 µM), 0.39; in the experiment with AZD8055 + Tozasertib (first compound 0.01 µM), 0.326; in the experiment with AZD8055 + Tozasertib (first compound 0.03162 µM), 0.354. Also, the relative viability with AZD8055 + Tozasertib (first compound 0.1 µM) worked out at 0.304; with AZD8055 + Tozasertib (first compound 0.3162 µM) it was 0.282; in the experiment with AZD8055 + Tozasertib (first compound 1 µM), 0.27; with AZD8055 + Phenformin (first compound 0.01 µM), 0.506; in the experiment with AZD8055 + Phenformin (first compound 0.03162 µM), 0.529; with AZD8055 + Phenformin (first compound 0.1 µM), 0.35. The relative viability stood at 0.278 in the experiment with AZD8055 + Phenformin (first compound 0.3162 µM) and 0.275 in the experiment with AZD8055 + Phenformin (first compound 1 µM).

Consider ChaGo-K-1, for which the relative viability worked out at 1.02 in the experiment with AZD8055 (0.01 µM); 0.998 with AZD8055 (0.03162 µM); 0.952 in the experiment with AZD8055 (0.1 µM); 0.858 with AZD8055 (0.3162 µM); 0.722 in the experiment with AZD8055 (1 µM); 1.09 with AZD8055 + Navitoclax (first compound 0.01 µM). Moreover, the relative viability was 1.08 with AZD8055 + Navitoclax (first compound 0.03162 µM); 1.3 in the experiment with AZD8055 + Navitoclax (first compound 0.1 µM); 0.655 in the experiment with AZD8055 + Navitoclax (first compound 0.3162 µM); 0.44 with AZD8055 + Navitoclax (first compound 1 µM); 0.214 with AZD8055 + Tozasertib (first compound 0.01 µM); 0.213 with AZD8055 + Tozasertib (first compound 0.03162 µM). For the same cell line, the relative viability in the experiment with AZD8055 + Tozasertib (first compound 0.1 µM) came out at 0.213; with AZD8055 + Tozasertib (first compound 0.3162 µM), 0.168; with AZD8055 + Tozasertib (first compound 1 µM), 0.175; in the experiment with AZD8055 + Phenformin (first compound 0.01 µM) it was 0.508; with AZD8055 + Phenformin (first compound 0.03162 µM), 0.467; in the experiment with AZD8055 + Phenformin (first compound 0.1 µM), 0.494. The results for the relative viability with AZD8055 + Phenformin (first compound 0.3162 µM) and with AZD8055 + Phenformin (first compound 1 µM) were 0.407 and 0.374, respectively.

EKVX: the relative viability with AZD8055 (0.01 µM) was determined as 1.09; in the experiment with AZD8055 (0.03162 µM), 1.08; with AZD8055 (0.1 µM), 0.818; with AZD8055 (0.3162 µM) it was 0.602; with AZD8055 (1 µM) it was 0.432; with AZD8055 + Navitoclax (first compound 0.01 µM), 1.08. Moreover, the relative viability with AZD8055 + Navitoclax (first compound 0.03162 µM) was found to be 1.04; with AZD8055 + Navitoclax (first compound 0.1 µM) it was 0.797; with AZD8055 + Navitoclax (first compound 0.3162 µM), 0.512; with AZD8055 + Navitoclax (first compound 1 µM), 0.413; with AZD8055 + Tozasertib (first compound 0.01 µM), 0.451; in the experiment with AZD8055 + Tozasertib (first compound 0.03162 µM), 0.418. Also, the relative viability came to 0.345 with AZD8055 + Tozasertib (first compound 0.1 µM); 0.226 with AZD8055 + Tozasertib (first compound 0.3162 µM); 0.202 with AZD8055 + Tozasertib (first compound 1 µM); 0.225 with AZD8055 + Phenformin (first compound 0.01 µM); 0.247 with AZD8055 + Phenformin (first compound 0.03162 µM); 0.229 with AZD8055 + Phenformin (first compound 0.1 µM). Further, the relative viability with AZD8055 + Phenformin (first compound 0.3162 µM) was 0.209; with AZD8055 + Phenformin (first compound 1 µM), 0.188.

With EMC-BAC-2, the relative viability with AZD8055 (0.01 µM) was found to be 0.992; in the experiment with AZD8055 (0.03162 µM) it was 0.784; in the experiment with AZD8055 (0.1 µM), 0.698; with AZD8055 (0.3162 µM) it was 0.356; with AZD8055 (1 µM), 0.336; in the experiment with AZD8055 + Navitoclax (first compound 0.01 µM) it was 1.22. The relative viability with AZD8055 + Navitoclax (first compound 0.03162 µM) stood at 1.13; with AZD8055 + Navitoclax (first compound 0.1 µM), 1.05; with AZD8055 + Navitoclax (first compound 0.3162 µM) it was 0.446; in the experiment with AZD8055 + Navitoclax (first compound 1 µM), 0.37; with AZD8055 + Tozasertib (first compound 0.01 µM) it was 0.279; with AZD8055 + Tozasertib (first compound 0.03162 µM), 0.299. In addition, the relative viability in the experiment with AZD8055 + Tozasertib (first compound 0.1 µM) was 0.249; with AZD8055 + Tozasertib (first compound 0.3162 µM), 0.257; in the experiment with AZD8055 + Tozasertib (first compound 1 µM), 0.255; in the experiment with AZD8055 + Phenformin (first compound 0.01 µM) it was 0.5; in the experiment with AZD8055 + Phenformin (first compound 0.03162 µM) it was 0.42; with AZD8055 + Phenformin (first compound 0.1 µM), 0.36. Moreover, the relative viability with AZD8055 + Phenformin (first compound 0.3162 µM) amounted to 0.283; in the experiment with AZD8055 + Phenformin (first compound 1 µM), 0.258.

Consider EPLC-272H, for which the relative viability with AZD8055 (0.01 µM) came to 0.807; with AZD8055 (0.03162 µM), 0.73; with AZD8055 (0.1 µM), 0.47; with AZD8055 (0.3162 µM) it was 0.356; with AZD8055 (1 µM), 0.358; with AZD8055 + Navitoclax (first compound 0.01 µM) it was 1.1. For the same cell line, the relative viability with AZD8055 + Navitoclax (first compound 0.03162 µM) came out at 0.842; with AZD8055 + Navitoclax (first compound 0.1 µM) it was 0.556; with AZD8055 + Navitoclax (first compound 0.3162 µM), 0.378; in the experiment with AZD8055 + Navitoclax (first compound 1 µM), 0.35; with AZD8055 + Tozasertib (first compound 0.01 µM), 0.279; in the experiment with AZD8055 + Tozasertib (first compound 0.03162 µM) it was 0.152. In addition, the relative viability with AZD8055 + Tozasertib (first compound 0.1 µM) was 0.161; in the experiment with AZD8055 + Tozasertib (first compound 0.3162 µM), 0.229; in the experiment with AZD8055 + Tozasertib (first compound 1 µM) it was 0.222; in the experiment with AZD8055 + Phenformin (first compound 0.01 µM) it was 0.326; with AZD8055 + Phenformin (first compound 0.03162 µM), 0.214; with AZD8055 + Phenformin (first compound 0.1 µM), 0.216. Besides, the relative viability with AZD8055 + Phenformin (first compound 0.3162 µM) is 0.198; in the experiment with AZD8055 + Phenformin (first compound 1 µM), 0.212.

Take H3255: the relative viability is 1.11 with AZD8055 (0.01 µM); 0.948 with AZD8055 (0.03162 µM); 0.778 with AZD8055 (0.1 µM); 0.436 with AZD8055 (0.3162 µM); 0.349 with AZD8055 (1 µM); 0.54 in the experiment with AZD8055 + Navitoclax (first compound 0.01 µM). Besides, the relative viability in the experiment with AZD8055 + Navitoclax (first compound 0.03162 µM) turned out to be 0.443; with AZD8055 + Navitoclax (first compound 0.1 µM), 0.324; with AZD8055 + Navitoclax (first compound 0.3162 µM) it was 0.176; with AZD8055 + Navitoclax (first compound 1 µM), 0.172; with AZD8055 + Tozasertib (first compound 0.01 µM), 0.574; in the experiment with AZD8055 + Tozasertib (first compound 0.03162 µM), 0.716. For the same cell line, the relative viability with AZD8055 + Tozasertib (first compound 0.1 µM) came out at 0.535; in the experiment with AZD8055 + Tozasertib (first compound 0.3162 µM) it was 0.604; in the experiment with AZD8055 + Tozasertib (first compound 1 µM), 0.359; in the experiment with AZD8055 + Phenformin (first compound 0.01 µM) it was 0.349; with AZD8055 + Phenformin (first compound 0.03162 µM) it was 0.397; in the experiment with AZD8055 + Phenformin (first compound 0.1 µM), 0.332. The relative viability in the experiment with AZD8055 + Phenformin (first compound 0.3162 µM) stood at 0.279; with AZD8055 + Phenformin (first compound 1 µM) it was 0.305.
